This note sets out measurements from patent US9981954B2, “2-(pyrazin-2-ylcarbonylaminomethyl) benzimidazolium compounds as epithelial sodium channel inhibitors” (Boehringer Ingelheim International GmbH, priority 2015, dated 2018).

Data set [1] in a line: Permeability in CALU-3 cells. The data set is classed as in vitro ADME. The settings on record: human, CALU-3 monolayers, pH 7.4, 37° C., 10 μM compound; for Papp A→B at 90 min, 10 μM: apical-to-basal; for Papp B→A at 90 min, 10 μM: basal-to-apical. How it is done:
Permeability in CALU-3 Cells:
Permeability measurements across polarized, confluent CALU-3 cell monolayers grown on permeable filter supports are used to provide information on the potential of a compound to pass the lung epithelium.
CALU-3 cells (1-2×10^5 cells/l cm^2 area) are seeded on filter inserts (Costar transwell polycarbonate filters, 0.4 μm pore size) and cultured (for 10-12 days DMEM) until tight monolayers are formed. Compounds of interest are dissolved in appropriate solvent (DMSO, 10 mM stock solution). […] The transport solution (TL) is applied to the apical or basolateral donor side for measuring A-B or B-A permeability (3 filter replicates), respectively. The receiver side contains the same buffer as the donor side. After 30 min of accommodation, samples are collected at the start t0=0 min and at the end of the experiment tn=90 min from the donor and at 0, 30, 60, and 90 min also from the receiver chamber. Volume removed is […] by HTP-4 buffer. The compound concentration in the samples is measured by HPLC-MS/MS or scintillation counting. The permeability coefficient (Papp) and efflux ratio are calculated according to: Papp [cm/s]=(concentration receiver [nM]*volume receiver [mL]/time interval [sec])*(1/filter area)*(1/donor concentration [nM]).

The target of data set [2] is T1, ENaC (Epithelial Sodium Channel), Mouse kidney M-1 cells (Mus musculus, UniProt Q61180+Q9WU38+Q9WU39).
T1 construct: Mouse kidney M-1 cells were cultivated in DMEM containing 5% FCS and 5 μM dexamethasone; endogenous in cells; host or cells: Mouse kidney M-1 cells (polarised on transwell filters, dexamethasone-treated)
T1 sequence (Q61180 1-699): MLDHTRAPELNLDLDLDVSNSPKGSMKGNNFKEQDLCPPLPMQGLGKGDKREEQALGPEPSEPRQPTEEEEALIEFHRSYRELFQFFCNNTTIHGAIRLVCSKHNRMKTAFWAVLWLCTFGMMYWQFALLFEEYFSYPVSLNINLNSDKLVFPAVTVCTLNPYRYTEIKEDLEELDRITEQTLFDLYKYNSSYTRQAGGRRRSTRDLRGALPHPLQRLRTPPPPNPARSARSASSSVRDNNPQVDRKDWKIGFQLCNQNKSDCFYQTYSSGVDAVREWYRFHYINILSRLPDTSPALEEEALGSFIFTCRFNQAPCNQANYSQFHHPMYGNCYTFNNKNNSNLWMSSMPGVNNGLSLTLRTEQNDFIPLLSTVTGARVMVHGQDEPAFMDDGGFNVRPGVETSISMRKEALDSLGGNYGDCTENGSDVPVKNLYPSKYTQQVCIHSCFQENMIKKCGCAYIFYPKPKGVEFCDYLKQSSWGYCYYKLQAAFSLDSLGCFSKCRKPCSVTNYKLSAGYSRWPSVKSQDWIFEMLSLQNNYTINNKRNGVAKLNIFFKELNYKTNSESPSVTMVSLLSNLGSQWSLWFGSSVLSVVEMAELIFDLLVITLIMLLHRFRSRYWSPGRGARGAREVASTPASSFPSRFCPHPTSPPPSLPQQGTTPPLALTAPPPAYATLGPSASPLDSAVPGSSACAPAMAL
T1 sequence (Q9WU38 1-638): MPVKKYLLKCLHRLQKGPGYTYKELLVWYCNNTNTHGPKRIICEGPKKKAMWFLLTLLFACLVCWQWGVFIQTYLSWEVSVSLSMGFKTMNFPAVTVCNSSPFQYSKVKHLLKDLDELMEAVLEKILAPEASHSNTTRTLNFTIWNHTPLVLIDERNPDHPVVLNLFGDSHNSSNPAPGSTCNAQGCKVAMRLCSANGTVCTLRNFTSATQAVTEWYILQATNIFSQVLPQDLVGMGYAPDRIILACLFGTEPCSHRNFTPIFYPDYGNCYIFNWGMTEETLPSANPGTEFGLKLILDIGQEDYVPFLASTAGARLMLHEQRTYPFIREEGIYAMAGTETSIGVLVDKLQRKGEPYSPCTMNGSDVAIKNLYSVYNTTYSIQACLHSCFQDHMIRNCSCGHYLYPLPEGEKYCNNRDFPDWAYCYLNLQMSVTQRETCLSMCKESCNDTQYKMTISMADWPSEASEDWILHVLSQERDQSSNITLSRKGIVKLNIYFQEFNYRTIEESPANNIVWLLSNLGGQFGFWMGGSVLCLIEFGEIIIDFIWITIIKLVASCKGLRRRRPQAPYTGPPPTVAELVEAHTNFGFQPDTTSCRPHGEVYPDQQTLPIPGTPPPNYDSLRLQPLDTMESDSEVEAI
T1 sequence (Q9WU39 1-655): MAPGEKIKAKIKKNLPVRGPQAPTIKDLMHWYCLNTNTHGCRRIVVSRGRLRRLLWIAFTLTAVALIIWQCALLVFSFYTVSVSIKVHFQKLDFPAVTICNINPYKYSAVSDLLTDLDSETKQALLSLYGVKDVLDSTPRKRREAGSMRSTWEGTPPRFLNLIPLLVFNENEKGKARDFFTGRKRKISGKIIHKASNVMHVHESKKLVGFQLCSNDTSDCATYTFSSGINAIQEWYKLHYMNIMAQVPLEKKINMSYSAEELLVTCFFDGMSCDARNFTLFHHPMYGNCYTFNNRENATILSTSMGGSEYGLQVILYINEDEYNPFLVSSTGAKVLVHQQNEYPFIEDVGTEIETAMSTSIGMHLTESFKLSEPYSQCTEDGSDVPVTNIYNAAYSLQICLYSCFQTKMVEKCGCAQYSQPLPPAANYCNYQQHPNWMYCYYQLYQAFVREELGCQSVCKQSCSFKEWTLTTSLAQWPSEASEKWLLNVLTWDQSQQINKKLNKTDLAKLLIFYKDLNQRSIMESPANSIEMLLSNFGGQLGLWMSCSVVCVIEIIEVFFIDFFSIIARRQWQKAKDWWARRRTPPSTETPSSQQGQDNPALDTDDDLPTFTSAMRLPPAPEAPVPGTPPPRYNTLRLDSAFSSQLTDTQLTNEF
Put plainly: Ussing Chamber assay: inhibition of amiloride sensitive short circuit current in M-1 cells. Type of data set: cell-based. The following applies: apical application, 37° C. How it is done: Ussing Chamber: Mouse kidney M-1 cells were cultivated in DMEM containing 5% FCS and 5 μM dexamethasone for 10 to 12 days on polyester transwell filters. Filters were inserted into a teflon-coated well-plate which fit into the ussing chamber system. Prior to measurement the medium of M-1 cells was replaced with Caco-2 transport buffer (Invitrogen, Germany). During measurements, the Ussing chamber temperature was kept at 37° C. Short circuit currents (I_sc) were measured in the voltage-clamp mode with the software package Lab View for data acquisition and analysis. The transepithelial electrical resistance (TEER) was determined by the application of voltage steps of ±5 mV every 5 sec. Compounds were administered at a final concentration of 3 μM or at increasing concentrations (1-3-10 μM) to the apical solution. At the end of each experiment the amiloride sensitive I_SC was measured by adding 3 μM amiloride to the apical compartment. Results are expressed as inhibition in percent of the amiloride effect or as IC50.

Consider `CCn1c(CNC(=O)c2nc(Cl)c(N)nc2N)[n+](CC(=O)N2CCNCC2)c2ccc(OC)cc21.Cl.[Cl-]` [Example 6.01], for which, in data set [1], the Papp A→B (as a rule, the apparent permeability from the apical to the basolateral side of a cell layer) at 90 min, 10 μM was 0.3 ×10⁻⁶ cm/s and the Papp B→A – broadly, how fast a substance crosses the layer from the basolateral side – at 90 min, 10 μM was found to be 0.2 ×10⁻⁶ cm/s. In data set [2], 47 nM corresponded to half-maximal inhibition (IC50).

In data set [1], `CC[n+]1c(CNC(=O)c2nc(Cl)c(N)nc2N)n(C2CCN(C(=O)NCCOC)CC2)c2ccccc21.O=C[O-]` [Example 7.01] registered a Papp A→B at 90 min, 10 μM of 0.07 ×10⁻⁶ cm/s and a Papp B→A at 90 min, 10 μM of 0.2 ×10⁻⁶ cm/s. Half-maximal inhibition in data set [2] (IC50) was put at 1 nM.

In data set [1], `CCn1c(CNC(=O)c2nc(Cl)c(N)nc2N)[n+](CC(=O)c2ccc(OC)c(OC)c2)c2ccc(OC)cc21.O=C([O-])C(F)(F)F` [Example 8.01] yielded a Papp A→B at 90 min, 10 μM of 0.3 ×10⁻⁶ cm/s and a basolateral-to-apical permeability (Papp B→A) at 90 min, 10 μM of 0.2 ×10⁻⁶ cm/s. The midpoint of inhibition in data set [2], the IC50, lay at 13 nM.
